Patent publication US11040035B2, “3-oxo-2,6-diphenyl-2,3-dihydropyridazine-4-carboxamides” (BAYER PHARMA AKTIENGESELLSCHAFT, priority 2016, dated 2021)

Assays:
AHR [1] = target: T1, AHR (Homo sapiens, UniProt P35869); assay: In vitro assay 1: antagonism in human cell line (transactivation assay, kynurenic acid prestimulated); details: Assay 1: AHR-luc Hum Antagonism IC50 [M], 150 μM kynurenic acid, 20 hours, firefly luciferase
T1 sequence (P35869 11-848): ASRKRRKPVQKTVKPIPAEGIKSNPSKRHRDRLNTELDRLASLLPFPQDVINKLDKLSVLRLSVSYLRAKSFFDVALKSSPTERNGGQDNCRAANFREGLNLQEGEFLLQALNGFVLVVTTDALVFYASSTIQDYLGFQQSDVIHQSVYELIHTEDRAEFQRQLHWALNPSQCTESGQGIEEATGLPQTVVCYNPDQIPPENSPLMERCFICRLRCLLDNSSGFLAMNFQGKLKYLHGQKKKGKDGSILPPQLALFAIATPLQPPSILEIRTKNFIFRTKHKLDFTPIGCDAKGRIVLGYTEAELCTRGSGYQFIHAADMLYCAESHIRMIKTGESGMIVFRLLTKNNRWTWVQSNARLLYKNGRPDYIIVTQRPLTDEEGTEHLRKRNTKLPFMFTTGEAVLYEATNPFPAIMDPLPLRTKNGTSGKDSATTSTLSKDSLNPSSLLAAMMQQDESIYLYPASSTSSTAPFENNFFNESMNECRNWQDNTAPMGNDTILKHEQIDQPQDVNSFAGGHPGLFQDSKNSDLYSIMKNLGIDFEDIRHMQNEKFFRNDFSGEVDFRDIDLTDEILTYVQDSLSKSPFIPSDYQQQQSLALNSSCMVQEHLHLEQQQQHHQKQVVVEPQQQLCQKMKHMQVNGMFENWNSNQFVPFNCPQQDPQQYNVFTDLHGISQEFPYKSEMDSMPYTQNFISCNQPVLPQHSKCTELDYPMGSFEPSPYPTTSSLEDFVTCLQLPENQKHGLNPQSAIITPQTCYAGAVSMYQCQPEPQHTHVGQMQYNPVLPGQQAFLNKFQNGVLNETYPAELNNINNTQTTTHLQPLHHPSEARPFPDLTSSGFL

AHR [2] = target: T1, AHR; assay: In vitro assay 2: agonism in human cell line (transactivation assay)
[3] = read-out: Assay 2: AHR-luc Hum Agonism IC50, no kynurenic acid, 20 hours, firefly luciferase
[4] = Assay 2: AHR-luc Hum Agonism IC50 [M], no kynurenic acid, 20 hours, firefly luciferase

Structure (SMILES): Cc1ccc(-c2cc(C(=O)NCC(O)C(C)C)c(=O)n(-c3cccc(F)c3)n2)cc1 (single isomer, unassigned; enantiomer 2) [Example 12, 2-(3-Fluorophenyl)-N-(2-hydroxy-3-methylbutyl)-6-(4-methylphenyl)-3-oxo-2,3-dihydropyridazine-4-carboxamide, enantiomer 2]
- IC50 (AHR [1]): 1.22e-07 M
- IC50 (AHR [2]; [3]): > 2e-05 M

Structure (SMILES): Cc1ccc(-c2cc(C(=O)NCC(C)O)c(=O)n(-c3cccc(F)c3)n2)cc1 (single isomer, unassigned; enantiomer 2) [Example 15, 2-(3-Fluorophenyl)-N-(2-hydroxypropyl)-6-(4-methylphenyl)-3-oxo-2,3-dihydropyridazine-4-carboxamide, Enantiomer 2]
- IC50 (AHR [1]): 2.62e-07 M
- IC50 (AHR [2]; [3]): > 2e-05 M

Structure (SMILES): COCC(O)CNC(=O)c1cc(-c2ccc(C)cc2)nn(-c2cccc(F)c2)c1=O (single isomer, unassigned; enantiomer 2) [Example 18, 2-(3-Fluorophenyl)-N-(2-hydroxy-3-methoxypropyl)-6-(4-methylphenyl)-3-oxo-2,3-dihydropyridazine-4-carboxamide, Enantiomer 2]
- IC50 (AHR [1]): 3.39e-07 M
- IC50 (AHR [2]; [3]): > 2e-05 M

Structure (SMILES): Cc1ccc(-c2cc(C(=O)NCC(O)C(F)(F)F)c(=O)n(-c3cccc(F)c3)n2)cc1 (stereo not shown) [Example 4, 2-(3-Fluorophenyl)-6-(4-methylphenyl)-3-oxo-N-(3,3,3-trifluoro-2-hydroxypropyl)-2,3-dihydropyridazine-4-carboxamide]
- IC50 (AHR [1]): 2.92e-08 M
- IC50 (AHR [2]; [4]): > 2e-05 M

Structure (SMILES): Cc1ccc(-c2cc(C(=O)N[C@@H](C)CO)c(=O)n(-c3cccc(F)c3)n2)cc1 [Example 8, 2-(3-Fluorophenyl)-N-[(2S)-1-hydroxypropan-2-yl]-6-(4-methylphenyl)-3-oxo-2,3-dihydropyridazine-4-carboxamide]
- IC50 (AHR [1]): 3.61e-08 M
- IC50 (AHR [2]; [4]): > 2e-05 M

Structure (SMILES): Cc1ccc(-c2cc(C(=O)NCC(O)C(C)C)c(=O)n(-c3cccc(F)c3)n2)cc1 (stereo not shown) [Example 10, 2-(3-Fluorophenyl)-N-(2-hydroxy-3-methylbutyl)-6-(4-methylphenyl)-3-oxo-2,3-dihydropyridazine-4-carboxamide]
- IC50 (AHR [1]): 1.2e-07 M
- IC50 (AHR [2]; [4]): > 2e-05 M

Structure (SMILES): Cc1ccc(-c2cc(C(=O)NCC(C)O)c(=O)n(-c3cccc(F)c3)n2)cc1 (stereo not shown) [Example 13, 2-(3-Fluorophenyl)-N-(2-hydroxypropyl)-6-(4-methylphenyl)-3-oxo-2,3-dihydropyridazine-4-carboxamide]
- IC50 (AHR [1]): 1.43e-07 M
- IC50 (AHR [2]; [4]): > 2e-05 M

Structure (SMILES): COCC(O)CNC(=O)c1cc(-c2ccc(C)cc2)nn(-c2cccc(F)c2)c1=O (stereo not shown) [Example 16, 2-(3-Fluorophenyl)-N-(2-hydroxy-3-methoxypropyl)-6-(4-methylphenyl)-3-oxo-2,3-dihydropyridazine-4-carboxamide]
- IC50 (AHR [1]): 1.74e-07 M
- IC50 (AHR [2]; [4]): > 2e-05 M

Structure (SMILES): C[C@H](CO)NC(=O)c1cc(-c2ccc(Cl)cc2)nn(-c2cccc(F)c2)c1=O [Example 24, 6-(4-Chlorophenyl)-2-(3-fluorophenyl)-N-[(2R)-1-hydroxypropan-2-yl]-3-oxo-2,3-dihydropyridazine-4-carboxamide]
- IC50 (AHR [1]): 3.02e-07 M
- IC50 (AHR [2]; [4]): > 2e-05 M

Structure (SMILES): CC(C)C(O)CNC(=O)c1cc(-c2ccc(Cl)cc2)nn(-c2cccc(F)c2)c1=O (stereo not shown) [Example 28, 6-(4-Chlorophenyl)-2-(3-fluorophenyl)-N-(2-hydroxy-3-methylbutyl)-3-oxo-2,3-dihydropyridazine-4-carboxamide]
- IC50 (AHR [1]): 8.85e-08 M
- IC50 (AHR [2]; [4]): > 2e-05 M

Structure (SMILES): COCC(O)CNC(=O)c1cc(-c2ccc(Cl)cc2)nn(-c2cccc(F)c2)c1=O (stereo not shown) [Example 31, 6-(4-Chlorophenyl)-2-(3-fluorophenyl)-N-(2-hydroxy-3-methoxypropyl)-3-oxo-2,3-dihydropyridazine-4-carboxamide]
- IC50 (AHR [1]): 1.61e-07 M
- IC50 (AHR [2]; [4]): > 2e-05 M

Structure (SMILES): CC(O)CNC(=O)c1cc(-c2ccc(Cl)cc2)nn(-c2cccc(F)c2)c1=O (stereo not shown) [Example 34, 6-(4-Chlorophenyl)-2-(3-fluorophenyl)-N-(2-hydroxypropyl)-3-oxo-2,3-dihydropyridazine-4-carboxamide]
- IC50 (AHR [1]): 1.88e-07 M
- IC50 (AHR [2]; [4]): > 2e-05 M

Structure (SMILES): C[C@@H](O)CNC(=O)c1cc(-c2ccc(Cl)cc2)nn(-c2cccc(F)c2)c1=O [Example 35, 6-(4-Chlorophenyl)-2-(3-fluorophenyl)-N-[(2R)-2-hydroxypropyl]-3-oxo-2,3-dihydropyridazine-4-carboxamide]
- IC50 (AHR [1]): 1.92e-07 M
- IC50 (AHR [2]; [4]): > 2e-05 M

Structure (SMILES): C[C@H](O)CNC(=O)c1cc(-c2ccc(Cl)cc2)nn(-c2cccc(F)c2)c1=O [Example 36, 6-(4-Chlorophenyl)-2-(3-fluorophenyl)-N-[(2S)-2-hydroxypropyl]-3-oxo-2,3-dihydropyridazine-4-carboxamide]
- IC50 (AHR [1]): 2.95e-07 M
- IC50 (AHR [2]; [4]): > 2e-05 M

Structure (SMILES): O=C(NC(CO)C1CCOC1)c1cc(-c2ccc(Cl)cc2)nn(-c2cccc(F)c2)c1=O (stereo not shown) [Example 38, 6-(4-Chlorophenyl)-2-(3-fluorophenyl)-N-[2-hydroxy-1-(tetrahydrofuran-3-yl)ethyl]-3-oxo-2,3-dihydropyridazine-4-carboxamide]
- IC50 (AHR [1]): 3.87e-08 M
- IC50 (AHR [2]; [4]): > 2e-05 M

Structure (SMILES): O=C(NCC(O)C(F)(F)F)c1cc(-c2ccc(Cl)cc2)nn(-c2cc(F)cc(F)c2)c1=O (stereo not shown) [Example 44, 6-(4-Chlorophenyl)-2-(3,5-difluorophenyl)-3-oxo-N-(3,3,3-trifluoro-2-hydroxypropyl)-2,3-dihydropyridazine-4-carboxamide]
- IC50 (AHR [1]): 1.99e-08 M
- IC50 (AHR [2]; [4]): > 2e-05 M

Structure (SMILES): CC(C)C(O)CNC(=O)c1cc(-c2ccc(Cl)cc2)nn(-c2cc(F)cc(F)c2)c1=O (stereo not shown) [Example 48, 6-(4-Chlorophenyl)-2-(3,5-difluorophenyl)-N-(2-hydroxy-3-methylbutyl)-3-oxo-2,3-dihydropyridazine-4-carboxamide]
- IC50 (AHR [1]): 4.93e-08 M
- IC50 (AHR [2]; [4]): > 2e-05 M

Structure (SMILES): Cc1ccc(-c2cc(C(=O)NCC(O)C(F)(F)F)c(=O)n(-c3cc(F)cc(F)c3)n2)cc1 (stereo not shown) [Example 52, 2-(3,5-Difluorophenyl)-6-(4-methylphenyl)-3-oxo-N-(3,3,3-trifluoro-2-hydroxypropyl)-2,3-dihydropyridazine-4-carboxamide]
- IC50 (AHR [1]): 1.17e-08 M
- IC50 (AHR [2]; [4]): > 2e-05 M

Structure (SMILES): Cc1ccc(-c2cc(C(=O)NCC(O)C(C)C)c(=O)n(-c3cc(F)cc(F)c3)n2)cc1 (stereo not shown) [Example 56, 2-(3,5-Difluorophenyl)-N-(2-hydroxy-3-methylbutyl)-6-(4-methylphenyl)-3-oxo-2,3-dihydropyridazine-4-carboxamide]
- IC50 (AHR [1]): 4e-08 M
- IC50 (AHR [2]; [4]): > 2e-05 M

Structure (SMILES): C[C@@H](CO)NC(=O)c1cc(-c2ccc(Cl)cc2)nn(-c2cccc(Cl)c2)c1=O [Example 66, 2-(3-Chlorophenyl)-6-(4-chlorophenyl)-N-[(2S)-1-hydroxypropan-2-yl]-3-oxo-2,3-dihydropyridazine-4-carboxamide]
- IC50 (AHR [1]): 1.65e-07 M
- IC50 (AHR [2]; [4]): > 2e-05 M

Structure (SMILES): CC(C)[C@@H](CO)NC(=O)c1cc(-c2ccc(Cl)cc2)nn(-c2ccccc2)c1=O [Example 75, 6-(4-chlorophenyl)-N-[(2S)-1-hydroxy-3-methylbutan-2-yl]-3-oxo-2-phenyl-2,3-dihydropyridazine-4-carboxamide]
- IC50 (AHR [1]): 3.45e-08 M
- IC50 (AHR [2]; [4]): > 2e-05 M

Structure (SMILES): O=C(NCC(O)C(F)(F)F)c1cc(-c2ccc(Cl)cc2)nn(-c2ccccc2)c1=O (stereo not shown) [Example 76, 6-(4-chlorophenyl)-3-oxo-2-phenyl-N-(3,3,3-trifluoro-2-hydroxypropyl)-2,3-dihydropyridazine-4-carboxamide]
- IC50 (AHR [1]): 9.37e-08 M
- IC50 (AHR [2]; [4]): > 2e-05 M

Structure (SMILES): C[C@@H](CO)NC(=O)c1cc(-c2ccc(Cl)cc2)nn(-c2ccccc2)c1=O [Example 80, 6-(4-chlorophenyl)-N-[(2S)-1-hydroxypropan-2-yl]-3-oxo-2-phenyl-2,3-dihydropyridazine-4-carboxamide]
- IC50 (AHR [1]): 2.14e-07 M
- IC50 (AHR [2]; [4]): > 2e-05 M

Structure (SMILES): CC(C)[C@@H](CO)NC(=O)c1cc(-c2ccc(C(F)F)cc2)nn(-c2cccc(F)c2)c1=O [Example 91, 6-[4-(Difluoromethyl)phenyl]-2-(3-fluorophenyl)-N-[(2S)-1-hydroxy-3-methylbutan-2-yl]-3-oxo-2,3-dihydropyridazine-4-carboxamide]
- IC50 (AHR [1]): 4.44e-09 M
- IC50 (AHR [2]; [4]): > 2e-05 M

Structure (SMILES): CC[C@@H](CO)NC(=O)c1cc(-c2ccc(C(F)F)cc2)nn(-c2cccc(F)c2)c1=O [Example 92, 6-[4-(Difluoromethyl)phenyl]-2-(3-fluorophenyl)-N-[(2S)-1-hydroxybutan-2-yl]-3-oxo-2,3-dihydropyridazine-4-carboxamide]
- IC50 (AHR [1]): 1.2e-08 M
- IC50 (AHR [2]; [4]): > 2e-05 M

Structure (SMILES): C[C@@H](CO)NC(=O)c1cc(-c2ccc(C(F)F)cc2)nn(-c2cccc(F)c2)c1=O [Example 93, 6-[4-(Difluoromethyl)phenyl]-2-(3-fluorophenyl)-N-[(2S)-1-hydroxypropan-2-yl]-3-oxo-2,3-dihydropyridazine-4-carboxamide]
- IC50 (AHR [1]): 3.02e-08 M
- IC50 (AHR [2]; [4]): > 2e-05 M
